Source: patent US20230285570A1, “THERAPEUTICALLY USEFUL CURE-PRO MOLECULES FOR E3 LIGASE MEDIATED DEGRADATION OF PROTEINS, AND METHODS OF MAKING AND USING THEM” (CORNELL UNIVERSITY, priority 2020, published 2023)
“Also recorded” adds a separate entry of the source.

Legend:
BRD4 [1] = target: T1, BRD4 (Homo sapiens, UniProt O60885); test: Summary of BRD4 degradation by CURE-PRO pairs, estimated from Western Blot or WES; format: cell-based; design: endogenous in cells; settings: for Degradation of BRD4, combination with CRBN ligand 8066: Table 1, aryl-boronic acid BRD4 ligand + 8066; for Degradation of BRD4, combination with CRBN ligand 8047: Table 1, aryl-boronic acid BRD4 ligand + 8047; for Degradation of BRD4, combination with CRBN ligand 8046: Table 1, aryl-boronic acid BRD4 ligand + 8046; for Degradation of BRD4, combination with VHL ligand 8305: Table 3, aryl-boronic acid BRD4 ligand + 8305
Protocol: (§1) Namalwa, Ramosm HeLa, MCF7, or HT29 HCT116 cells (2.5-3×10^6) were treated for 24 hours with the indicated compounds solubilized in DMSO. The cells were washed in ice-cold PBS and were then lysed in RIPA lysis buffer (150 mM NaCl, 5 mM EDTA, 1% NP-40, 0.5% sodium deoxycholate, 0.1% SDS, 50 mM Tris, pH 8.0.) with Roche protease inhibitor complete cocktail and phosphatase inhibitors (10 mM sodium fluoride, 10 mM sodium pyrophosphate, 1 mM sodium orthovanadate and 20 mM β-glycerophosphate). The total protein concentrations were determined by Bradford Protein Assay (Pierce) and 10-20 μg of protein was loaded onto 4-15% Tris-Glycine gradient gels (Biorad). After standard gel electrophoresis, the separated proteins were transferred to PVDF membrane by wet transfer. The immunoblots were then blocked for 1 hour in 5% skim milk in TBST or 5% BSA in TBST, according to manufacturer's instructions, before an overnight incubation at 4° C. with indicated antibodies and membranes. Membranes were then incubated with the appropriate horseradish peroxidase-conjugated secondary antibodies (1:5,000 dilution) for 1 h at room temperature and the bands were visualized using the Clarity Max Western ECL Substrate (Biorad) and the ChemiDoc Imaging System (Biorad). Signal was detected with ECL Western Blotting Substrate (Pierce) and X-ray film processed with a Konica SRX-101 X-ray film processor or captured by Bio-Rad's Chemidoc Imaging system.
WES Simple analysis was performed on WES system (ProteinSimple-Biotechne) according to the manufacturer's instructions. Total protein concentrations of cell lysates were determined by the Pierce BCA kit (Thermo Fisher). 3 μL of 0.3 μg/μL of the protein lysate was loaded onto a 12- to 230-kDa WES assay plate (ProteinSimple) where 300 nL sample was withdrawn through a capillary, subjected to electrophoretic separation of proteins by size, and followed by the simultaneous, HRP-based detection of proteins using the Anti-Rabbit Detection Module (Proteinsimple: #DM-001). The electropherograms were checked then the automatic peak detection was manually corrected if it was required.
A black check mark indicates efficacy of 30% to 70% or higher protein degradation.

BRD4 [2] = target: T1, BRD4; test: CURE-PRO-mediated BRD4 degradation in HeLa cells, Western blot; format: cell-based; design: endogenous in cells; host or cells: HeLa; settings: 24 h
Protocol: All cell lines were purchased from ATCC or DSMZ and grown at 37° C. with 5% CO2. Human HeLa cells were cultured in complete growth medium (Dulbecco's modified Eagle's medium (DMEM) supplemented with 10% FBS); MCF7 cells were cultured in complete growth medium (Dulbecco's modified Eagle's medium (DMEM) supplemented with 10% FBS and 0.01 mg/ml human recombinant insulin (Sigma Aldrich); Namalwa and Ramos cells were cultured in complete growth medium (RPMI 1640 medium supplemented with 10% FBS); HCT116 and HT29 cells were cultured in complete growth medium (McCoy's 5a Medium supplemented with 10% FBS). For cellular degradation of BRD4 studies cells were seeded in a 12-well plate at 70-80% confluency, allowed to attach overnight, and incubated with the indicated compounds for the indicated time. When indicated, a 15-minute pretreatment with 10 μM pomalidomide, 10 μM VHL298, 10 μM Nutlin3a, 1 μM MG-132 or 1 μM Carfilzomib was performed before the addition of CURE-PROs. For washout studies, after CURE-PRO treatment, media was aspirated and incubated with complete medium for the indicated time before lysis.
as §1
HeLa cells (2.5×10^6) were treated for 24 hours with the sample compounds solubilized in DMSO. Compounds were added at 1-10 μM each. Standardized protein samples were electrophoresed and imaged as described in the immunoblotting description above. FIGS. 6-18 depicts the CURE-PRO-mediated BRD4 degradation for BRD monomers (JQ1 derivatives comprising of catechol linkers), and CRBN ligands, 8048 and 8049 (pomalidomide derivatives comprising boronic acid linkers) combined in a 1:1 ratio.
HeLa cells (2.5×10^6) were treated for 24 hours with the compounds solubilized in DMSO. The compounds were added at 10 μM each. Standardized protein samples were electrophoresed and imaged as described in the immunoblotting section above. FIGS. 23-27 depicts the CURE-PRO-mediated BRD4 degradation for BRD monomers (JQ1 derivatives comprising of boronic acid linkers), and CRBN ligands, 8046, 8047 and 8066 (pomalidomide derivatives comprising diol linkers) combined in a 1:1 ratio.
HeLa cells (2.5×10^6) were treated for 24 hours with the compounds solubilized in DMSO. Compounds were added at 10 μM and 100 μM each. Standardized protein samples were electrophoresed and imaged as described in the immunoblotting section above.
HeLa cells (2.5×10^6) were treated for 24 hours with the compounds solubilized in DMSO. Compounds were added at 1 nM-1 μM each. […]

[3] = co-treated 1:1 with CRBN ligand 8046, HeLa, 10 μM each
[4] = co-treated 1:1 with CRBN ligand 8047, HeLa, 10 μM each
[5] = co-treated 1:1 with CRBN ligand 8066, HeLa, 10 μM each

SMILES	Degradation of BRD4, combination with CRBN ligand 8066 (BRD4 [1])	Degradation of BRD4, combination with CRBN ligand 8047 (BRD4 [1])	BRD4 degradation (BRD4 [2]; [4])	further results
COc1ccc2c(c1)C(c1ccc(Cl)cc1)=N[C@@H](CC(=O)NCCCCCNC(=O)c1ccc(B(O)O)cc1)c1nnc(C)n1-2 [BRD- E07]	√ (A black check mark indicates efficacy of 30% to 70% or higher protein degradation)			
COc1ccc2c(c1)C(c1ccc(Cl)cc1)=N[C@@H](CC(=O)NCCNC(=O)Cc1cccc(B(O)O)c1)c1nnc(C)n1-2 [BRD- E38]		√ (A black check mark indicates efficacy of 30% to 70% or higher protein degradation)		
CCNC(=O)C[C@@H]1N=C(c2ccc(Cl)cc2)c2cc(OCCOCCNC(=O)c3ccc(B(O)O)cc3)ccc2-n2c(C)nnc21 [BRD- E39]				Degradation of BRD4, combination with CRBN ligand 8046 (BRD4 [1]): √ (A black check mark indicates efficacy of 30% to 70% or higher protein degradation)
CCNC(=O)C[C@@H]1N=C(c2ccc(OCc3ccc(B(O)O)cc3)cc2)c2cc(OC)ccc2-n2c(C)nnc21 [BRD- E54]				Degradation of BRD4, combination with VHL ligand 8305 (BRD4 [1]): √ (A black check mark indicates efficacy of 30% to 70% or higher protein degradation)
CCNC(=O)C[C@@H]1N=C(c2ccc(Cl)cc2)c2cc(OCCOCCOCCNC(=O)c3ccc(O)c(O)c3)ccc2-n2c(C)nnc21 [BRD- N40]				Degradation of BRD4, combination with VHL ligand 8297 (BRD4 [1]; Table 6, aromatic 1,2-diol BRD4 ligand + 8297): √ (A black check mark indicates efficacy of 30% to 70% or higher protein degradation)
COc1ccc2c(c1)C(c1ccc(Cl)cc1)=N[C@@H](CC(=O)Nc1ccc(O)c(O)c1)c1nnc(C)n1-2 [BRD- N68]				Degradation of BRD4, combination with CRBN ligand 8048 (BRD4 [1]; Table 4, aromatic 1,2-diol BRD4 ligand + 8048): √ (A black check mark indicates efficacy of 30% to 70% or higher protein degradation)
COc1ccc2c(c1)C(c1ccc(Cl)cc1)=N[C@@H](CC(=O)NCCCNC(=O)c1cccc(B(O)O)c1)c1nnc(C)n1-2 [BRD-E4]	√ (A black check mark indicates efficacy of 30% to 70% or higher protein degradation)	√ (A black check mark indicates efficacy of 30% to 70% or higher protein degradation)	causes degradation of BRD4; also recorded: Degradation is noted	BRD4 degradation (BRD4 [2]; [3]): causes degradation of BRD4; also recorded: Degradation is noted; BRD4 degradation (BRD4 [2]; [5]): causes degradation of BRD4; also recorded: Degradation is noted; Degradation of BRD4, combination with CRBN ligand 8046 (BRD4 [1]): √ (A black check mark indicates efficacy of 30% to 70% or higher protein degradation)
COc1ccc2c(c1)C(c1ccc(Cl)cc1)=N[C@@H](CC(=O)NCCCCNC(=O)c1ccc(B(O)O)cc1)c1nnc(C)n1-2 [BRD-E5]	√ (A black check mark indicates efficacy of 30% to 70% or higher protein degradation)	√ (A black check mark indicates efficacy of 30% to 70% or higher protein degradation)	causes degradation of BRD4; also recorded: Degradation is noted	BRD4 degradation (BRD4 [2]; [5]): causes degradation of BRD4; also recorded: Degradation is noted
COc1ccc2c(c1)C(c1ccc(Cl)cc1)=N[C@@H](CC(=O)NCc1cccc(B(O)O)c1)c1nnc(C)n1-2 [BRD-E10]		√ (A black check mark indicates efficacy of 30% to 70% or higher protein degradation)		BRD4 degradation (BRD4 [2]; 1:1 with CRBN ligand 8046, HeLa, 10 μM and 100 μM each): only demonstrated BRD4 degradation at 100 μM; BRD4 degradation (BRD4 [2]; 1:1 with CRBN ligand 8047, HeLa, 10 μM and 100 μM each): complete degradation at 10 μM; Degradation of BRD4, combination with CRBN ligand 8046 (BRD4 [1]): √ (A black check mark indicates efficacy of 30% to 70% or higher protein degradation); Degradation of BRD4, combination with VHL ligand 8304 (BRD4 [1]; Table 3, aryl-boronic acid BRD4 ligand + 8304): √ (A black check mark indicates efficacy of 30% to 70% or higher protein degradation)
COc1ccc2c(c1)C(c1ccc(Cl)cc1)=N[C@@H](CC(=O)NCCNC(=O)Cc1ccc(B(O)O)cc1)c1nnc(C)n1-2 [BRD-E27, (4-(2-((2-(2-((4S)-6-(4-chlorophenyl)-8-methoxy-1-methyl-4H-benzo[f][1,2,4]triazolo[4,3-a][1,4]diazepin-4-yl)acetamido)ethyl)amino)-2-oxoethyl)phenyl)boronic Acid]		√ (A black check mark indicates efficacy of 30% to 70% or higher protein degradation)	causes degradation of BRD4	
COc1ccc2c(c1)C(c1ccc(Cl)cc1)=N[C@@H](CC(=O)NCCNC(=O)/C=C/c1cccc(B(O)O)c1)c1nnc(C)n1-2 [BRD-E30, (3-((E)-3-((2-(2-((4S)-6-(4-chlorophenyl)-8-methoxy-1-methyl-4H-benzo[f][1,2,4]triazolo[4,3-a][1,4]diazepin-4-yl)acetamido)ethyl)amino)-3-oxoprop-1-en-1-yl)phenyl)boronic acid]	√ (A black check mark indicates efficacy of 30% to 70% or higher protein degradation)	√ (A black check mark indicates efficacy of 30% to 70% or higher protein degradation)		
CCNC(=O)C[C@@H]1N=C(c2ccc(Cl)cc2)c2cc(OCCOCCOCCNC(=O)c3cccc(B(O)O)c3)ccc2-n2c(C)nnc21 [BRD-E42]		√ (A black check mark indicates efficacy of 30% to 70% or higher protein degradation)	causes degradation of BRD4	
CCNC(=O)C[C@@H]1N=C(c2ccc(Cl)cc2)c2cc(OCCOCCOCCOCCNC(=O)c3ccc(B(O)O)cc3)ccc2-n2c(C)nnc21 [BRD-E43]	√ (A black check mark indicates efficacy of 30% to 70% or higher protein degradation)	√ (A black check mark indicates efficacy of 30% to 70% or higher protein degradation)	causes degradation of BRD4	BRD4 degradation (BRD4 [2]; [5]): causes degradation of BRD4; also recorded: Degradation is noted
COc1ccc2c(c1)C(c1ccc(Cl)cc1)=N[C@@H](CC(=O)NCCOCCOCCNC(=O)c1ccc(B(O)O)cc1)c1nnc(C)n1-2 [BRD-E45]	√ (A black check mark indicates efficacy of 30% to 70% or higher protein degradation)			BRD4 degradation (BRD4 [2]; [5]): causes degradation of BRD4; Degradation of BRD4, combination with VHL ligand 8305 (BRD4 [1]): √ (A black check mark indicates efficacy of 30% to 70% or higher protein degradation)
COc1ccc2c(c1)C(c1ccc(Cl)cc1)=N[C@@H](CC(=O)Nc1ccc(B(O)O)cc1)c1nnc(C)n1-2 [BRD-E74, (4-(2-((4S)-6-(4-chlorophenyl)-8-methoxy-1-methyl-4H-benzo[f][1,2,4]triazolo[4,3-a][1,4]diazepin-4-yl)acetamido)phenyl)boronic acid]			causes degradation of BRD4	BRD4 degradation (BRD4 [2]; [3]): causes degradation of BRD4; Degradation of BRD4, combination with CRBN ligand 8046 (BRD4 [1]): √ (A black check mark indicates efficacy of 30% to 70% or higher protein degradation); Degradation of BRD4, combination with MDM2 ligand 8314 (BRD4 [1]; Table 2, aryl-boronic acid BRD4 ligand + 8314): √ (A black check mark indicates efficacy of 30% to 70% or higher protein degradation)
